Assay results taken from US20080045546A1, “Tetradydro-Naphthalene And Urea Derivatives” (priority 2003, published 2008).

Molecular target: T1, human VR1 (Homo sapiens, UniProt Q8NER1)
T1 construct: expressed in transfected cells
Test: Capsaicin-induced Ca2+ influx in the human VR1-transfected CHO cell line (Assay 1)
Format: cell-based
Details: stimulation with 10 nM capsaicin; human VR1-CHOluc9aeq cells; read-out: activity class (IC50)
Excerpt: [Measurement of Capsaicin-induced Ca^2+ Influx in the Human VR1-transfected CHO Cell Line](Assay 1)
(1) Establishment of the Human VR1-CHOluc9aeq Cell Line
Human vanilloid receptor (hVR1) cDNA was cloned from libraries of axotomized dorsal root ganglia (WO 00/29577). The cloned hVR1 cDNA was constructed with pcDNA3 vector and transfected into a CHOluc9aeq cell line. The cell line contains aequorin and CRE-luciferase reporter genes as read-out signals. The transfectants were cloned by limiting dilution in selection medium (DMEM/F12 medium (Gibco BRL) supplemented with 10% FCS, 1.4 mM Sodium pyruvate, 20 mM HEPES, 0.15% Sodium bicarbonate, 100 U/ml penicillin, 100 μg/ml streptomycin, 2 mM glutamine, non-essential amino acids and 2 mg/ml G418). Ca^2+ influx was examined in the capsaicin-stimulated clones. A high responder clone was selected and used for further experiments in the project. The human VR1-CHOluc9aeq cells were maintained in the selection medium and passaged every 3-4 days at 1-2.5×10^5 cells/flask ([…]).
(2) Measurement of Ca^2+ Influx Using FDSS-3000
Human VR1-CHOluc9aeq cells were suspended in a culture medium which is the same as the selection medium except for G418 and seeded at a density of 1,000 cells per well into 384-well plates (black walled clear-base/Nalge Nunc International). Following the culture for 48 hrs the medium was changed to 2 μM Fluo-3 AM (Molecular Probes) and 0.02% Puronic F-127 in assay buffer (Hank's balanced salt solution (HBSS), 17 mM HEPES (pH7.4), 1 mM Probenecid, 0.1% BSA) and the cells were incubated for 60 min at 25° C. After washing twice with assay buffer the cells were incubated with a test compound or vehicle for 20 min at 25° C. Mobilization of cytoplasmic Ca^2+ was measured by FDSS-3000 (λex=488 nm, λem=540 nm/Hamamatsu Photonics) for 60 sec after the stimulation with 10 nM capsaicin. Integral R was calculated and compared with controls.

T1 sequence (Q8NER1 whole entry): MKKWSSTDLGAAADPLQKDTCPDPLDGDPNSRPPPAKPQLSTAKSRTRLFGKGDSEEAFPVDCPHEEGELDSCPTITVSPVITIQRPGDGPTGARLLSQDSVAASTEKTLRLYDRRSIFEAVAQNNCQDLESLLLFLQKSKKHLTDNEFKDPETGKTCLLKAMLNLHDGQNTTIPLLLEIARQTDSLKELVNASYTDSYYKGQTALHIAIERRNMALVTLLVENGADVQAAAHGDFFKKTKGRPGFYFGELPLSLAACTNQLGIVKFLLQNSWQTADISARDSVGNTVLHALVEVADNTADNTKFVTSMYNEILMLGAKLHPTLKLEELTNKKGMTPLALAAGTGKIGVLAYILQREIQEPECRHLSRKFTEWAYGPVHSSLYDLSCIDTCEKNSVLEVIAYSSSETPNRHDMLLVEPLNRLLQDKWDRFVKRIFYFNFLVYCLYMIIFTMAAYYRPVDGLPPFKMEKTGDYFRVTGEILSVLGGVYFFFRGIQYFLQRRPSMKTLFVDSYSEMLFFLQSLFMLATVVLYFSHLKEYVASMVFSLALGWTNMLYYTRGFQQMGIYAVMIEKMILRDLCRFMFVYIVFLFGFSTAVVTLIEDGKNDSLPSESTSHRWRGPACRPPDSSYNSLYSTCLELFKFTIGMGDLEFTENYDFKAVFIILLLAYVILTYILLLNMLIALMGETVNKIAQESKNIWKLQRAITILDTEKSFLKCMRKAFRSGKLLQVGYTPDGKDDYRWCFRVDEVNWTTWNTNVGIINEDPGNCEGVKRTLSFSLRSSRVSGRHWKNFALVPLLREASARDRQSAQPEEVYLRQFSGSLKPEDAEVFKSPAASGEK

With `O=C(Cc1cccc(Br)c1)Nc1cccc2c1CC(O)CC2` (stereo not drawn) [1-4] as the compound, how does the IC50 read?
Its IC50 is 500 to 1000 nM.

Which IC50 does the source give for `O=C(NCc1ccncc1)Nc1cccc2c1CC(O)CC2` (stereo not drawn) [1-6] here?
Its IC50 is 500 to 1000 nM.

For `COC1Cc2cccc(NC(=O)Nc3ccc(Cl)c(C(F)(F)F)c3)c2CC1O` (stereo not drawn) [2-8], which IC50 is on record?
Its IC50 is 100 to 500 nM.

With `O=C(Nc1ccc(Cl)c(C(F)(F)F)c1)Nc1cccc2c1CCC(O)C2` (stereo not drawn) [Example 2-3, N-[4-Chloro-3-(trifluoromethyl)phenyl]-N′-(6-hydroxy-5,6,7,8-tetrahydronaphthalen-1-yl)urea] as the compound, how does the IC50 read?
Its IC50 is less than 100 nM.

For `Cl.O=C(NCc1ccc(C(F)(F)F)nc1)Nc1cccc2c1CC(O)CC2` (stereo not drawn) [Example 1-13], which IC50 is on record?
Its IC50 is less than 100 nM.

Which IC50 does the source give for `O=C(NCc1ccc(C(F)(F)F)cc1)Nc1cccc2c1CCC(O)C2` (stereo not drawn) [2-6] here?
The IC50 was less than 100 nM.

With `CC(=O)OC1Cc2cccc(NC(=O)Nc3ccc(Cl)c(C(F)(F)F)c3)c2C1` (stereo not drawn) [Example 1-1] as the compound, how does the IC50 read?
Its IC50 is 500 to 1000 nM.

With `O=C(Nc1ccc2c(c1)OCO2)Nc1cccc2c1CC(O)CC2` (stereo not drawn) [Example 1-1] as the compound, how does the IC50 read?
The IC50 was 500 to 1000 nM.

For `O=C(Nc1ccc(Cl)c(C(F)(F)F)c1)Nc1cccc2c1CCC2O` (stereo not drawn) [1-3], which IC50 is on record?
Its IC50 is less than 100 nM.

For `O=C(NCc1cccnc1)Nc1cccc2c1CC(O)CC2` (stereo not drawn) [1-5], which IC50 is on record?
The IC50 was 500 to 1000 nM.

With `O=C(Nc1cccc2c1CC(O)CC2)c1ccc(C(F)(F)F)cc1` (stereo not drawn) [1-3] as the compound, how does the IC50 read?
Its IC50 is 100 to 500 nM.

Which IC50 does the source give for `COC1Cc2c(cccc2NC(=O)Nc2ccc(Cl)c(C(F)(F)F)c2)CC1O` (stereo not drawn) [Example 2-9] here?
Its IC50 is less than 100 nM.

For `CC1CCc2cccc(NC(=O)Nc3ccc(Cl)c(C(F)(F)F)c3)c2C1` (stereo not drawn) [Example 3-1], which IC50 is on record?
Its IC50 is less than 100 nM.

Which IC50 does the source give for `O=C(Nc1cccc2c1CC(O)CC2)NC1CCc2ccccc21` (stereo not drawn) [1-3] here?
The IC50 was 100 to 500 nM.

For `O=C1CCc2c(cccc2NC(=O)NCc2ccc(C(F)(F)F)cc2)C1` [2-5], which IC50 is on record?
Its IC50 is less than 100 nM.

Which IC50 does the source give for `CC(C)(C)c1cc(NC(=O)Nc2cccc3c2CC(O)CC3)no1` (stereo not drawn) [1-2] here?
The IC50 was 100 to 500 nM.

For `O=C(NCc1ccc(-c2csnn2)cc1)Nc1cccc2c1CC(O)CC2` (stereo not drawn) [1-8], which IC50 is on record?
Its IC50 is less than 100 nM.

Which IC50 does the source give for `COc1ccccc1C(=O)Nc1cccc2c1CC(O)CC2` (stereo not drawn) [1-2] here?
The IC50 was 500 to 1000 nM.

With `O=C(NCc1ccc2c(c1)OCO2)Nc1cccc2c1CC(O)CC2` (stereo not drawn) [Example 1-10] as the compound, how does the IC50 read?
The IC50 was less than 100 nM.

Which IC50 does the source give for `O=C(NCc1ccc(C(F)(F)F)nc1)Nc1cccc2c1CC(O)CC2` (stereo not drawn) [Example 1-12] here?
Its IC50 is less than 100 nM.

With `CC(=O)OC1Cc2cccc(NC(=O)NCc3ccc(C(F)(F)F)cc3)c2C1` (stereo not drawn) [1-2] as the compound, how does the IC50 read?
The IC50 was less than 100 nM.

Which IC50 does the source give for `O=C(NCc1ccccn1)Nc1cccc2c1CC(O)CC2` (stereo not drawn) [Example 1-9] here?
Its IC50 is 500 to 1000 nM.

For `O=C1CCc2c(cccc2NC(=O)Nc2ccc(Cl)c(C(F)(F)F)c2)C1` [Example 2-2], which IC50 is on record?
Its IC50 is less than 100 nM.

With `O=C(Nc1cccc2c1CC(O)CC2)c1cc2cc(Cl)ccc2[nH]1` (stereo not drawn) [Example 1-1] as the compound, how does the IC50 read?
The IC50 was 100 to 500 nM.

For `O=C(Nc1ccc(Cl)c(C(F)(F)F)c1)Nc1cccc2c1CC(CO)CC2` (stereo not drawn) [Example 4-1, N-[4-Chloro-3-(trifluoromethyl)phenyl]-N′-[7-(hydroxymethyl)-5,6,7,8-tetrahydronaphthalen-1-yl]urea], which IC50 is on record?
The IC50 was less than 100 nM.

For `O=C(Nc1ccc(Oc2ccncc2)cc1)Nc1cccc2c1CC(O)CC2` (stereo not drawn) [1-4], which IC50 is on record?
Its IC50 is 100 to 500 nM.

For `CCOC1=CCc2c(cccc2NC(=O)NCc2ccc(C(F)(F)F)cc2)C1` [2-4], which IC50 is on record?
Its IC50 is 500 to 1000 nM.

Which IC50 does the source give for `O=C(Nc1ccc(Cl)c(C(F)(F)F)c1)Nc1cccc2c1CC(O)C(O)C2` (stereo not drawn) [2-7] here?
Its IC50 is less than 100 nM.

For `O=C(Nc1cccc(-c2ccncc2)c1)Nc1cccc2c1CC(O)CC2` (stereo not drawn) [Example 1-11], which IC50 is on record?
Its IC50 is less than 100 nM.

With `O=C(Nc1cccc2c1CC(O)CC2)NC1CCCc2ccccc21` (stereo not drawn) [1-7] as the compound, how does the IC50 read?
The IC50 was less than 100 nM.

System: not given
Test: not given
Details: not given

Which melting point does the source give for `O=C(NCc1ccc(-c2csnn2)cc1)Nc1cccc2c1CC(O)CC2` (stereo not drawn) [Example 1-8] here?
The melting point was 225 °C.

Which melting point does the source give for `O=C(Nc1ccc(Oc2ccncc2)cc1)Nc1cccc2c1CC(O)CC2` (stereo not drawn) [Example 1-4] here?
Its melting point is 200 to 202 °C.

Which melting point does the source give for `O=C(NCc1cccnc1)Nc1cccc2c1CC(O)CC2` (stereo not drawn) [Example 1-5] here?
Its melting point is 203 °C.

With `O=C(Nc1ccc(Cl)c(C(F)(F)F)c1)Nc1cccc2c1CCC(O)C2` (stereo not drawn) [Example 2-3, N-[4-Chloro-3-(trifluoromethyl)phenyl]-N′-(6-hydroxy-5,6,7,8-tetrahydronaphthalen-1-yl)urea] as the compound, how does the melting point read?
Its melting point is 216 °C.

Which melting point does the source give for `O=C(NCc1ccncc1)Nc1cccc2c1CC(O)CC2` (stereo not drawn) [Example 1-6] here?
Its melting point is 243 °C.

With `Cl.O=C(NCc1ccc(C(F)(F)F)nc1)Nc1cccc2c1CC(O)CC2` (stereo not drawn) [Example 1-13] as the compound, how does the melting point read?
The melting point was 204 to 205 °C.

For `O=C1CCc2c(cccc2NC(=O)Nc2ccc(Cl)c(C(F)(F)F)c2)C1` [Example 2-2, N-[4-Chloro-3-(trifluoromethyl)phenyl]-N′-(6-oxo-5,6,7,8-tetrahydronaphthalen-1-yl)urea], which melting point is on record?
Its melting point is 219 °C.

With `O=C(Nc1cccc2c1CC(O)CC2)NC1CCCc2ccccc21` (stereo not drawn) [Example 1-7] as the compound, how does the melting point read?
The melting point was 216 °C.

With `O=C(Nc1ccc(Cl)c(C(F)(F)F)c1)Nc1cccc2c1CCC2O` (stereo not drawn) [Example 1-3] as the compound, how does the melting point read?
The melting point was 221 to 223 °C.

Which melting point does the source give for `CCOC1=CCc2c(cccc2NC(=O)Nc2ccc(Cl)c(C(F)(F)F)c2)C1` [Example 2-1, N-[4Chloro-3-(trifluoromethyl)phenyl]-N′-(6-ethoxy-5,8-dihydronaphthalen-1-yl)urea] here?
Its melting point is 216 °C.

With `COC1Cc2c(cccc2NC(=O)Nc2ccc(Cl)c(C(F)(F)F)c2)CC1O` (stereo not drawn) [Example 2-9] as the compound, how does the melting point read?
The melting point was 112 to 127 °C.

Which melting point does the source give for `O=C1CCc2c(cccc2NC(=O)NCc2ccc(C(F)(F)F)cc2)C1` [Example 2-5] here?
Its melting point is 221 °C.

For `O=C(Nc1cccc2c1CC(O)CC2)c1ccc(C(F)(F)F)cc1` (stereo not drawn) [Example 1-3], which melting point is on record?
Its melting point is 217 to 218 °C.

With `O=C(Nc1cccc2c1CC(O)CC2)NC1CCc2ccccc21` (stereo not drawn) [Example 1-3] as the compound, how does the melting point read?
Its melting point is 193 to 195 °C.

With `CCOC1=CCc2c(cccc2NC(=O)NCc2ccc(C(F)(F)F)cc2)C1` [Example 2-4] as the compound, how does the melting point read?
Its melting point is 235 °C.

With `O=C(NCc1ccc2c(c1)OCO2)Nc1cccc2c1CC(O)CC2` (stereo not drawn) [Example 1-10] as the compound, how does the melting point read?
The melting point was 190 °C.

For `O=C(NCc1ccc(C(F)(F)F)nc1)Nc1cccc2c1CC(O)CC2` (stereo not drawn) [Example 1-12], which melting point is on record?
The melting point was 211 to 212 °C.

With `O=C(NCc1ccccn1)Nc1cccc2c1CC(O)CC2` (stereo not drawn) [Example 1-9] as the compound, how does the melting point read?
Its melting point is 230 °C.

With `CC(=O)OC1Cc2cccc(NC(=O)Nc3ccc(Cl)c(C(F)(F)F)c3)c2C1` (stereo not drawn) [Example 1-1, 4-[({[4-Chloro-3-(trifluoromethyl)phenyl]amino}carbonyl)amino]-2,3-dihydro-1H-inden-2-yl acetate] as the compound, how does the melting point read?
Its melting point is 207 to 209 °C.

For `COc1ccccc1C(=O)Nc1cccc2c1CC(O)CC2` (stereo not drawn) [Example 1-2], which melting point is on record?
Its melting point is 184 to 186 °C.

Which melting point does the source give for `CC(=O)OC1Cc2cccc(NC(=O)NCc3ccc(C(F)(F)F)cc3)c2C1` (stereo not drawn) [Example 1-2] here?
Its melting point is 166 to 168 °C.

For `O=C(Nc1ccc2c(c1)OCO2)Nc1cccc2c1CC(O)CC2` (stereo not drawn), which melting point is on record?
Its melting point is 209 to 211 °C.

For `O=C(NCc1ccc(C(F)(F)F)cc1)Nc1cccc2c1CCC(O)C2` (stereo not drawn) [Example 2-6], which melting point is on record?
Its melting point is 205 °C.

For `O=C(Nc1cccc(-c2ccncc2)c1)Nc1cccc2c1CC(O)CC2` (stereo not drawn) [Example 1-11], which melting point is on record?
The melting point was 208 °C.
